Laboratory results reported in patent US4782043A, “Renin inhibitors containing a C-terminal amide cycle” (Merck & Co., Inc., priority 1985, dated 1988).
Peptide text beside a SMILES is read from it.

test system: hog renin; test: not given; settings: nephrectomized rats after injection of hog renin (Gross et al. 1971); cited from earlier work

Row | Compound | blood pressure in vivo
1 | Pepstatin | reduce blood pressure in vivo

target: hog kidney renin (Sus scrofa, UniProt A0A287APG1); test: Hog renin inhibition; format: biochemical; settings: pH 7.3, concentration producing 50% inhibition of renin activity, read-out: I50
Sequence (A0A287APG1 67-407): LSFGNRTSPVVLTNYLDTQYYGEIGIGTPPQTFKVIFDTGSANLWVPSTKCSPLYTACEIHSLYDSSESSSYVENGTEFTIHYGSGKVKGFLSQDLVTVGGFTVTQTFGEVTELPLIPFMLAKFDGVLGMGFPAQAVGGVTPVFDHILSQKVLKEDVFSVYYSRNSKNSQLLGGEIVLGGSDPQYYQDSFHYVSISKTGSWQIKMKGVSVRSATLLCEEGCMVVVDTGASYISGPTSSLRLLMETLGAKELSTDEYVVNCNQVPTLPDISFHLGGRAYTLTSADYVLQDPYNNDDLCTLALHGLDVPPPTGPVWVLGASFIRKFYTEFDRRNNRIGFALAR
Description: An assay was carried out in order to determine the inhibitory potency of the peptides of the present invention. The assay measured the inhibition of hog kidney renin, and was in accordance with the procedure described in Rich et al., J. Med. Chem. 23: 27, 1980, except that a pH of 7.3 was used. The results of the assay, illustrated in the table below, are expressed as I50 values, which refers to the concentration of peptide inhibitor necessary to produce 50% inhibition of renin activity. This I50 value is obtained typically by plotting data from four inhibitor concentrations. Pepstatin was used as an active control.

Row | IC50 [nM] | Compound
2 | 1700 | CC(C)C[C@@H]1NC(=O)C[C@H](O)[C@H](CC(C)C)NC(=O)[C@@H](NC(=O)[C@H](Cc2ccccc2)NC(=O)[C@@H]2CCCN2C(=O)[C@H](Cc2c[nH]cn2)NC(=O)C(C)C)CCCCNC(=O)CNC(=O)[C@H](Cc2ccccc2)NC1=O (HELM PEPTIDE1{[CC(C)C(=O)[*:2]].H.P.F.K.[CC(C)C[C@H](N[*:1])[C@@H](O)CC(=O)[*:2]].L.F.G}$PEPTIDE1,PEPTIDE1,5:R3-9:R2$$$V2.0)
3 | 7100 | CC(C)C[C@@H]1NC(=O)C[C@H](O)[C@H](CC(C)C)NC(=O)[C@@H](NC(=O)[C@H](Cc2ccccc2)NC(=O)[C@@H]2CCCN2C(=O)[C@H](Cc2c[nH]cn2)NC(=O)C(C)C)CCNC(=O)CNC(=O)[C@H](Cc2ccccc2)NC1=O (HELM PEPTIDE1{[CC(C)C(=O)[*:2]].H.P.F.[Dab].[CC(C)C[C@H](N[*:1])[C@@H](O)CC(=O)[*:2]].L.F.G}$PEPTIDE1,PEPTIDE1,5:R3-9:R2$$$V2.0)
4 | 2800 | CC(C)C[C@@H]1NC(=O)C[C@H](O)[C@H](CC(C)C)NC(=O)[C@@H](NC(=O)[C@H](Cc2ccccc2)NC(=O)[C@@H]2CCCN2C(=O)[C@H](Cc2c[nH]cn2)NC(=O)C(C)C)CCCNC(=O)CNC(=O)[C@H](Cc2ccccc2)NC1=O (HELM PEPTIDE1{[CC(C)C(=O)[*:2]].H.P.F.[Orn].[CC(C)C[C@H](N[*:1])[C@@H](O)CC(=O)[*:2]].L.F.G}$PEPTIDE1,PEPTIDE1,5:R3-9:R2$$$V2.0)
5 | 24000 | CC(C)C[C@@H]1NC(=O)C[C@H](O)[C@H](CC(C)C)NC(=O)[C@@H](NC(=O)[C@H](Cc2ccccc2)NC(=O)[C@@H]2CCCN2C(=O)[C@H](Cc2c[nH]cn2)NC(=O)C(C)C)CCCNC(=O)[C@H](Cc2ccccc2)NC1=O (HELM PEPTIDE1{[CC(C)C(=O)[*:2]].H.P.F.[Orn].[CC(C)C[C@H](N[*:1])[C@@H](O)CC(=O)[*:2]].L.F}$PEPTIDE1,PEPTIDE1,5:R3-8:R2$$$V2.0)
6 | 26 | CC(C)C[C@@H]1NC(=O)C[C@H](O)[C@H](Cc2ccccc2)NC(=O)[C@@H](NC(=O)C(CCCc2ccccc2)Cc2ccccc2)CCCCNC(=O)[C@H](Cc2ccccc2)NC1=O (single isomer, unassigned) [drawing 38]
7 | 230 | CC(C)C[C@@H]1NC(=O)C[C@H](O)[C@H](CC(C)C)NC(=O)[C@@H](NC(=O)[C@H](Cc2ccccc2)NC(=O)[C@@H]2CCCN2C(=O)[C@H](Cc2c[nH]cn2)NC(=O)C(C)C)CCCCNC(=O)[C@H](Cc2ccccc2)NC1=O [drawing 31] (HELM PEPTIDE1{[CC(C)C(=O)[*:2]].H.P.F.K.[CC(C)C[C@H](N[*:1])[C@@H](O)CC(=O)[*:2]].L.F}$PEPTIDE1,PEPTIDE1,5:R3-8:R2$$$V2.0)
8 | 450 | CC(C)C[C@@H]1NC(=O)C[C@H](O)[C@H](CC(C)C)NC(=O)[C@@H](NC(=O)[C@H](Cc2ccccc2)NC(=O)OC(C)(C)C)CCCCNC(=O)[C@H](Cc2ccccc2)NC1=O [drawing 37] (HELM PEPTIDE1{[CC(C)(C)OC(=O)[*:2]].F.K.[CC(C)C[C@H](N[*:1])[C@@H](O)CC(=O)[*:2]].L.F}$PEPTIDE1,PEPTIDE1,3:R3-6:R2$$$V2.0)

target: T1, human kidney renin (Homo sapiens, UniProt P00797); test: Human renin inhibition; format: biochemical; settings: purified human kidney renin; dissociation constant of enzyme-inhibitor complex
T1 construct: human kidney renin purified as described in Bangham; from tissue; host or cells: human kidney
T1 sequence (P00797 67-406): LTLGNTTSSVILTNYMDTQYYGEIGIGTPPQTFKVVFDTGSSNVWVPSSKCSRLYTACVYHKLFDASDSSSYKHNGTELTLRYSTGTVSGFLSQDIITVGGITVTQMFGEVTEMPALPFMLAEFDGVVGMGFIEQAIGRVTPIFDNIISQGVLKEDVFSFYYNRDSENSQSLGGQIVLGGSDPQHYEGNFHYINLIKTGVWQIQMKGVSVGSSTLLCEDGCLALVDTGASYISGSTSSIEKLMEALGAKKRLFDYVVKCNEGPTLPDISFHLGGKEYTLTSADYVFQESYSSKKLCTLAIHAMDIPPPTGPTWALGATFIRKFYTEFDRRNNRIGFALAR
Description: An assay was carried out in order to determine the inhibitory potency of the peptides of the present invention. The assay measured the inhibition of human kidney renin purified as described in Bangham, D. R., Robertson, I., Robinson, J. I. S., Robinson, C. J., and Tree, M., Clinical Science and Molecular Medicine, 48 (Supp. 2): 136s-159s (1975), and further purified by affinity chromatography on pepstatin-aminohexyl-Sepharase as describe in Poe, M., Wu., J. K., Florance, J. R., Radkey, J. A., Bennett, C. D., and Hoagsteen, K., J. Biol. Chem. (1982, in press). The assay was also in accordance with Poe et al. cited above. Results are expressed as KI values, which refer to the dissociation constant of the inhibited enzyme-inhibitor complex. This KI value was obtained as described above. Pepstatin was used as an active control.

Row | Ki [nM] | Compound
9 | 190 | CC(C)C[C@@H]1NC(=O)C[C@H](O)[C@H](Cc2ccccc2)NC(=O)[C@@H](NC(=O)C(CCCc2ccccc2)Cc2ccccc2)CCCCNC(=O)[C@H](Cc2ccccc2)NC1=O (single isomer, unassigned) [drawing 41]
10 | 55 | CC(C)C[C@@H]1NC(=O)C[C@H](O)[C@H](CC(C)C)NC(=O)[C@@H](NC(=O)[C@H](Cc2ccccc2)NC(=O)[C@@H]2CCCN2C(=O)[C@H](Cc2c[nH]cn2)NC(=O)C(C)C)CCCCNC(=O)[C@H](Cc2ccccc2)NC1=O [drawing 39] (HELM PEPTIDE1{[CC(C)C(=O)[*:2]].H.P.F.K.[CC(C)C[C@H](N[*:1])[C@@H](O)CC(=O)[*:2]].L.F}$PEPTIDE1,PEPTIDE1,5:R3-8:R2$$$V2.0)
11 | 64 | CC(C)C[C@@H]1NC(=O)C[C@H](O)[C@H](CC(C)C)NC(=O)[C@@H](NC(=O)[C@H](Cc2ccccc2)NC(=O)OC(C)(C)C)CCCCNC(=O)[C@H](Cc2ccccc2)NC1=O [drawing 40] (HELM PEPTIDE1{[CC(C)(C)OC(=O)[*:2]].F.K.[CC(C)C[C@H](N[*:1])[C@@H](O)CC(=O)[*:2]].L.F}$PEPTIDE1,PEPTIDE1,3:R3-6:R2$$$V2.0)
